Measured values from ChEMBL document CHEMBL1201862, “PubChem BioAssay data set” (2004).
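Interpolation was linear, between the two tested concentrations surrounding the appropriate level; five concentrations were tested over 48 hours in 96-well plates. GI50 marks 50% less growth.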 The source made the active and inactive calls. No stated cut-off is given here; in the data, active = GI50 up to about 1.1 µM and inactive = higher.

What was measured:
Experiment in all cases: growth of human tumour cells (NCI), 48 h
HCC 2998 = system: HCC 2998
HCT-116 = system: HCT-116
HCT-15 = system: HCT-15
Hs-578T = system: Hs-578T
IGROV-1 = system: IGROV-1
KM12 = system: KM12
M14 = system: M14
MOLT-4 = system: MOLT-4
NCI-H460 = system: NCI-H460
NCI/ADR-RES = system: NCI/ADR-RES
OVCAR-3 = system: OVCAR-3
OVCAR-4 = system: OVCAR-4
OVCAR-5 = system: OVCAR-5
RPMI-8226 = system: RPMI-8226
RXF 393 = system: RXF 393
SF-295 = system: SF-295
SNB-75 = system: SNB-75
SW-620 = system: SW-620
T47D = system: T47D
TK-10 = system: TK-10

Measured: GI50

Cc1cccc(C)c1NC(=O)Nc1ccc(S(N)(=O)=O)cc1
> 100 µM: HCT-15
inactive: HCC 2998 > 100 µM | HCT-116 > 100 µM | Hs-578T > 100 µM | IGROV-1 > 100 µM | KM12 > 100 µM | M14 > 100 µM | MOLT-4 > 100 µM | NCI-H460 > 100 µM | NCI/ADR-RES > 100 µM | OVCAR-3 > 100 µM | OVCAR-4 > 100 µM | OVCAR-5 > 100 µM | RPMI-8226 > 100 µM | RXF 393 > 100 µM | SF-295 > 100 µM | SNB-75 > 100 µM | SW-620 > 100 µM | T47D > 100 µM | TK-10 > 100 µM

Cc1ccc(S(=O)(=O)NC(=O)OC23COCN2COC3)cc1
> 100 µM: HCT-15
inactive: HCC 2998 > 100 µM | HCT-116 > 100 µM | Hs-578T > 100 µM | IGROV-1 > 100 µM | KM12 > 100 µM | M14 > 100 µM | NCI-H460 > 100 µM | NCI/ADR-RES > 100 µM | OVCAR-3 > 100 µM | OVCAR-4 > 100 µM | OVCAR-5 > 100 µM | RPMI-8226 29.5 µM | RXF 393 > 100 µM | SF-295 > 100 µM | SNB-75 > 100 µM | SW-620 81.7 µM | T47D 69.5 µM | TK-10 > 100 µM

CN1C(=O)CC(=O)N1/C(=C/c1ccccc1)c1ccccc1
inactive: HCC 2998 > 100 µM | HCT-116 > 100 µM | Hs-578T 28.2 µM | IGROV-1 18.2 µM | KM12 > 100 µM | M14 65.8 µM | MOLT-4 30.3 µM | NCI-H460 48 µM | NCI/ADR-RES > 100 µM | OVCAR-3 39.3 µM | OVCAR-4 49.8 µM | OVCAR-5 > 100 µM | RPMI-8226 37.1 µM | RXF 393 14 µM | SF-295 67 µM | SNB-75 > 100 µM | SW-620 > 100 µM | T47D > 100 µM | TK-10 33 µM

COc1ccc(C(=C2C(=O)N(c3ccccc3)C(=O)C2=C(C)C)c2ccc(OC)cc2)cc1
2.92 µM: HCT-15
inactive: HCC 2998 5.5 µM | HCT-116 3.72 µM | Hs-578T 3.69 µM | IGROV-1 3.44 µM | KM12 3.53 µM | M14 2.4 µM | MOLT-4 2.54 µM | NCI-H460 4.22 µM | NCI/ADR-RES 2.57 µM | OVCAR-3 3.56 µM | OVCAR-4 3.23 µM | OVCAR-5 8.69 µM | RPMI-8226 4.1 µM | RXF 393 2.09 µM | SF-295 3.17 µM | SNB-75 2.87 µM | SW-620 3.19 µM | T47D 3.27 µM | TK-10 14 µM

COc1ccc(/C=C2\C[C@H]3[C@@H]4CCC5=C/C(=N/O)CC[C@]5(C)[C@H]4CC[C@]3(C)\C2=N\O)cc1OC
14.7 µM: HCT-15
inactive: HCC 2998 10.7 µM | HCT-116 6.56 µM | Hs-578T > 100 µM | IGROV-1 47.4 µM | KM12 8.04 µM | M14 40.2 µM | MOLT-4 5.79 µM | NCI-H460 3.61 µM | NCI/ADR-RES 26.4 µM | OVCAR-3 9.1 µM | OVCAR-4 11 µM | OVCAR-5 41 µM | RPMI-8226 4.49 µM | RXF 393 28.4 µM | SF-295 7 µM | SNB-75 > 100 µM | SW-620 34.2 µM | T47D 7.66 µM

CCOC(=O)C1=NN(c2ccc(Cl)cc2)C2=CC(C)=NN(C)C(=S)N21
67.5 µM: HCT-15
inactive: HCC 2998 > 100 µM | HCT-116 36.6 µM | Hs-578T 27.5 µM | IGROV-1 44.8 µM | KM12 > 100 µM | M14 59.7 µM | MOLT-4 > 100 µM | NCI-H460 > 100 µM | NCI/ADR-RES 65 µM | OVCAR-3 56.5 µM | OVCAR-4 37.6 µM | OVCAR-5 > 100 µM | RPMI-8226 > 100 µM | RXF 393 25.4 µM | SF-295 42.2 µM | SNB-75 26.8 µM | SW-620 94.6 µM | T47D 23.9 µM | TK-10 22 µM

CC(=C(c1ccccc1)c1ccccc1)N1C(=O)CC(=O)N1C
inactive: HCC 2998 47 µM | HCT-116 74.6 µM | Hs-578T 20.3 µM | IGROV-1 18.3 µM | KM12 50.4 µM | M14 24.7 µM | MOLT-4 38.4 µM | NCI-H460 29.2 µM | NCI/ADR-RES > 100 µM | OVCAR-3 32.4 µM | OVCAR-4 32.1 µM | OVCAR-5 53.2 µM | RPMI-8226 32.6 µM | RXF 393 15.4 µM | SF-295 52.7 µM | SNB-75 67.6 µM | SW-620 > 100 µM | T47D 78.2 µM | TK-10 43.3 µM

C=CCc1cccc2cc(C(=O)Nc3ccc(C)cc3)c(=N)oc12
> 100 µM: HCT-15
inactive: HCC 2998 > 100 µM | HCT-116 > 100 µM | Hs-578T > 100 µM | IGROV-1 > 100 µM | KM12 > 100 µM | M14 > 100 µM | MOLT-4 > 100 µM | NCI-H460 > 100 µM | NCI/ADR-RES > 100 µM | OVCAR-3 > 100 µM | OVCAR-4 > 100 µM | OVCAR-5 > 100 µM | RPMI-8226 > 100 µM | RXF 393 > 100 µM | SNB-75 > 100 µM | SW-620 > 100 µM | T47D > 100 µM

CCOC(=O)C1(C(F)(F)F)N=C(CC)OC(N2CCOCC2)=N1 (stereo not drawn)
inactive: HCC 2998 > 100 µM | HCT-116 > 100 µM | Hs-578T > 100 µM | IGROV-1 > 100 µM | KM12 > 100 µM | M14 > 100 µM | MOLT-4 > 100 µM | NCI-H460 > 100 µM | NCI/ADR-RES > 100 µM | OVCAR-3 > 100 µM | OVCAR-4 > 100 µM | OVCAR-5 > 100 µM | RPMI-8226 > 100 µM | RXF 393 > 100 µM | SF-295 > 100 µM | SNB-75 > 100 µM | SW-620 > 100 µM | T47D 46.6 µM | TK-10 > 100 µM
> 100 µM: HCT-15

CC1(C)CN=C(Nc2ccc(F)cc2)S1
inactive: HCC 2998 > 100 µM | HCT-116 > 100 µM | Hs-578T > 100 µM | IGROV-1 > 100 µM | KM12 > 100 µM | M14 > 100 µM | MOLT-4 > 100 µM | NCI/ADR-RES > 100 µM | OVCAR-3 > 100 µM | OVCAR-4 > 100 µM | OVCAR-5 > 100 µM | RPMI-8226 > 100 µM | RXF 393 > 100 µM | SF-295 > 100 µM | SNB-75 > 100 µM | SW-620 > 100 µM | T47D > 100 µM | TK-10 > 100 µM
> 100 µM: HCT-15

Cc1cc(=O)n2nc(CCl)sc2n1
13.6 µM: HCT-15
inactive: HCC 2998 16 µM | HCT-116 12.4 µM | Hs-578T 17 µM | IGROV-1 14.9 µM | KM12 12.1 µM | M14 11.2 µM | MOLT-4 11.8 µM | NCI-H460 11.4 µM | NCI/ADR-RES 20.7 µM | OVCAR-3 14.9 µM | OVCAR-4 17.8 µM | OVCAR-5 15 µM | RPMI-8226 10.6 µM | RXF 393 5.94 µM | SF-295 19.3 µM | SNB-75 10.8 µM | SW-620 15.8 µM | T47D 15.3 µM | TK-10 10.2 µM

Cc1cc(=O)nc(S(=O)(=O)NC(=S)Nc2ccc(Cl)cc2)[nH]1
inactive: HCC 2998 > 100 µM | HCT-116 > 100 µM | Hs-578T > 100 µM | IGROV-1 > 100 µM | KM12 > 100 µM | M14 > 100 µM | MOLT-4 10.2 µM | NCI-H460 > 100 µM | NCI/ADR-RES > 100 µM | OVCAR-3 > 100 µM | OVCAR-4 > 100 µM | OVCAR-5 > 100 µM | RPMI-8226 34.4 µM | RXF 393 2.74 µM | SF-295 > 100 µM | SNB-75 64 µM | SW-620 > 100 µM | T47D 44.9 µM | TK-10 > 100 µM
> 100 µM: HCT-15
